Assay results published in patent US9814754B2, “Combinations with a backbone-cyclized peptide” (POLYPHOR AG, priority 2012, dated 2017).
Square brackets hold non-standard residues; d marks the D form. dDab = NCC[C@@H](N)C(=O)O; Orn = NCCC[C@H](N)C(=O)O; Dab = NCC[C@H](N)C(=O)O

How the values were obtained:
Assay type in all cases: in vivo
[1] = system: Pseudomonas aeruginosa clinical isolate PAX11045; test: Murine pneumonia model, compound 1 in combination with azithromycin (Example 2)
Procedure: The efficacy and ED50 of the compound of formula (I) (“compound 1”) in combination with azithromycin was determined against Pseudomonas aeruginosa clinical isolate PAX11045 in a pneumonia model in mice. Colony counts in lung were determined at 20 hours post treatment.
(§1) Fresh overnight colonies of PAX11045 from a 5% Horse Blood Agar plate were suspended in 0.9% sterile saline to approximately 10^8 CFU/ml and further diluted to approximately 5×10^7 CFU/ml. Female mice (DBA/2, outbred, 17-23 g, Charles River) were anesthetized with 0.1 ml of Zoletil and inoculated via the nose with a pipette with 0.05 ml of the bacteria suspension containing approximately 10^6 CFU. 4 hours after inoculation, the mice were treated orally with 45 μl neurophen (20 mg ibuprofen/ml corresponding to approximately 30 mg/kg) as pain relief.
480 mg of azithromycin (Zitromax™, Pfizer) were dissolved in 4.8 ml 0.9% sterile saline to a concentration of 100 mg/ml and further diluted with saline to 5 mg/ml. The mice were treated subcutaneously with 0.2 ml in the neck region with a single dose at 3 hours post infection corresponding to 50 mg/kg on the basis of a mean animal weight of 20 g.
The mice were treated subcutaneously with 0.2 ml in the neck region with a single dose at 4 hours post infection with a dose calculation based on a mean animal weight of 20 g.
(§2) Colony counts were determined post inoculation at 4 hours (untreated mice) and 24 hours (treated and vehicle-only treated mice). Immediately after the mice were sacrificed, the lungs were collected and frozen at −20° C. After thawing, the organs were homogenized in 1 ml 0.9% saline. Each sample was then 10 fold diluted in saline and 20 μl spots were applied on blood agar plates. All agar plates were incubated 18-24 hours at 35° C. in ambient air.

[2] = system: Pseudomonas aeruginosa clinical isolate PA9349; test: Murine pneumonia model, compound 1 in combination with ciprofloxacin (Example 3)
Procedure: Colony counts in lung were determined at 20 hours post treatment.
Fresh overnight colonies of PA9349 from a 5% Horse Blood Agar plate were suspended in 0.9% sterile saline to approximately 10^8 CFU/ml and further diluted to approximately 10^7 CFU/ml. Female mice (C57BL/6 […], outbred, 20-25 g, Hellenic Pasteur Institute) were anesthetized with ether and inoculated via the nose with a pipette with 0.05 ml of the bacteria suspension containing approximately 10^6 CFU. After inoculation, mice were treated with paracetamol suppositories as a pain relief.
The mice were treated subcutaneously with 0.2 ml in the neck region with a single dose at 3 hours post infection corresponding to 20 mg/kg on the basis of a mean animal weight of 20 g.
1 vial was further diluted with saline to 1, 0.8 and 0.4 mg/ml. The mice were treated subcutaneously with 0.25 ml (25 mg/kg dose) or 0.2 ml (for all other doses) in the neck region with a single dose at 4 hours post infection with a dose calculation based on a mean animal weight of 20 g.
as §2

[3] = system: Pseudomonas aeruginosa clinical isolate PAX11045; test: Murine pneumonia model, compound 1 alone (Reference 1)
Procedure: Efficacy in Murine Pneumonia Model Against Pseudomonas aeruginosa PAX11045 and Estimation of ED50
The efficacy and ED50 of the compound of formula (I) (“compound 1”) was determined against Pseudomonas aeruginosa clinical isolate PAX11045 in a pneumonia model in mice. Colony counts in the lungs and spleen were determined at 20 hours post treatment.
as §1, with “18-22” for “17-23”, “0.08” for “0.1”, “Zoletil (tiletamine+zolazepam)” for “Zoletil”
One vial was further 2-fold diluted with saline to 2.25, 1.125, 0.56 and 0.28 mg/ml. The mice were treated subcutaneously with 0.2 ml in the neck region with a single dose at 4 hours post infection with a dose calculation based on a mean animal weight of 20 g.
as §2, with “lungs and spleens” for “lungs”, “10-fold” for “10 fold”, “18-48” for “18-24”

[4] = in presence of 50 mg/kg azithromycin, murine lungs
[5] = in presence of 20 mg/kg ciprofloxacin, murine lungs
[6] = compound 1 alone, s.c., murine lungs

cyclo(TWI[Dab][Orn][dDab][Dab]W[Dab][Dab]AS[dP]P) [compound 1]
effect on bacterial loads ([1]; 5.5 mg/kg alone, lung, p<0.001): significant effect on reducing the bacterial loads | CFU levels compared to vehicle treatment ([1]; combination of compound 1 (dose series) and azithromycin 50 mg/kg, lung, p<0.01-p<0.001): concentration dependent significant reduction of the CFU levels | Top level ([1]; compound 1 s.c. in presence of 50 mg/kg azithromycin (s.c., 3 h post infection), murine lungs): −0.10 log10 CFU/ml | 1 log killing dose [1, 4]: 1.2 mg/kg | 2 log killing dose [1, 4]: 2.4 mg/kg | Bottom level [1, 4]: −2.59 log10 CFU/ml | Emax [1, 4]: 2.49 log10 CFU/ml | Static dose [1, 4]: 0.63 mg/kg | ED50 ([1]; in presence of fixed dose of 50 mg/kg azithromycin, murine lungs): 1.74 mg/kg | effect on bacterial loads ([2]; 5.5 mg/kg alone, lung, p<0.001): significant effect on reducing the bacterial loads | CFU levels compared to vehicle treatment ([2]; combination of compound 1 at 1.88-25 mg/kg and ciprofloxacin 20 mg/kg, lung, p<0.001): significant reduction of the CFU levels | Top level ([2]; compound 1 s.c. in presence of 20 mg/kg ciprofloxacin (s.c., 3 h post infection), murine lungs): −0.21 log10 CFU/ml | 1 log killing dose [2, 5]: 0.45 mg/kg | 2 log killing dose [2, 5]: 1.00 mg/kg | 3log killing dose [2, 5]: 1.82 mg/kg | Bottom level [2, 5]: −4.17 log10 CFU/ml | Emax [2, 5]: 3.96 log10 CFU/ml | ED50 ([2]; in presence of fixed dose of 20 mg/kg ciprofloxacin, murine lungs): 1.55 mg/kg | Bottom level ([3]; compound 1 alone, s.c. single dose 4 h post infection, murine lungs): −2.2 log10 CFU/ml | Top level ([3]; compound 1 alone, s.c. single dose 4 h post infection, murine lungs, sigmoidal dose-response model): 1.3 log10 CFU/ml | 1 log killing dose [3, 6]: 8.1 mg/kg | 2 log killing dose [3, 6]: 20 mg/kg | Emax [3, 6]: 3.5 log10 CFU/ml | Static dose [3, 6]: 1.55 mg/kg | ED50 ([3]; compound 1 alone, s.c., murine lungs, sigmoidal dose-response model (variable slope)): 4.33 mg/kg | CFU levels compared to vehicle treatment ([3]; compound 1 s.c. dose series, both organs (lungs and spleen), p<0.001 for the higher concentrations): concentration dependent significant reduction of the CFU levels
